Measurements published in patent US12690589B2, “Herbicidal compositions comprising pyroxasulfone” (BASF SE, priority 2024, dated 2026).
Several values for one entry are separate records, joined by “and”; a condition that tells them apart may be missing. Equal entries are not always repeated.

What was measured:
Assay in all cases: Post-emergence application in field trials, herbicidal activity (damage scale 0 to 100%)
Type in all cases: in vivo
Hordeum vulgare (HORVW) = settings: HORVW, growth stage 23-29, height 20-25 cm, A-1 18 g ai/ha
Experimental: (§1) In the examples below, using the method of S. R. Colby (1967) “Calculating synergistic and antagonistic responses of herbicide combinations”, Weeds 15, p. 22ff., the value E, which is expected if the activity of the individual active compounds is only additive, was calculated:
(§2) [formula] • wherein • X=percent activity using active herbicide A at an application rate a; • Y=percent activity using active herbicide B (e.g. pyroxasulfone) at an application rate b; • E=expected activity (in %) by A+B at application rates a+b.
(§3) For 3-component mixtures the synergistic response was calculated as described in: Ferry, Nancy; Stanley, Bruce H.; and Armel, Gregory (2005). “DESIGN AND ANALYSIS OF BIOLOGICAL ASSAYS OF MIXTURES,” Conference on Applied Statistics in Agriculture. https://doi.org/10.4148/2475-7772.1133. According to this publication, the Colby calculation can be generalized to a third mixing partner, Z, employing the following formula: […]
(§4) If the value found experimentally is higher than the value E calculated according to Colby, a synergistic effect is present.
(§5) On field test sites, natural weed infestation or seeded weeds were treated post-emergence of the weeds.
(§6) In the field trials, the weeds were treated as indicated below.
(§7) In the following experiments, the herbicidal activity for the individual herbicidal compositions (solo and mixture applications) was assessed at the indicated days after treatment (DAT). The assessments for the damage on undesired weeds caused by the composition was carried out using a scale from 0 to 100%, compared to the untreated control plants. Here, 0 means no damage and 100 means complete destruction of the plants.
(§8) Herbicide A-1 (342 g/l) and pyroxasulfone (500 g/l) were, together with addition of 0.25 v/v % MSO (methylated seed oil) as adjuvant, formulated in 200 l/ha water as distribution medium and sprayed with commercial flat fan nozzles.
(§9) Herbicide A-1 (342 g/l), pyroxasulfone (500 g/l) and trifludimoxazin (500 g/l) were, together with addition of 0.25 v/v % MSO (methylated seed oil) as adjuvant, formulated in 200 l/ha water as distribution medium and sprayed with commercial flat fan nozzles.
(§10) Herbicide A-1 (342 g/I), pyroxasulfone (500 g/l) and glyphosate-isopropylammonium (356 g/l) were, together with addition of 0.25 v/v % MSO (methylated seed oil) as adjuvant, formulated in 200 l/ha water as distribution medium and sprayed with commercial flat fan nozzles.
(§11) Herbicide A-1 (342 g/l), pyroxasulfone (500 g/l) and glufosinate-P-ammonium (211 g/l) were, together with addition of 0.25 v/v % MSO (methylated seed oil) as adjuvant, formulated in 200 l/ha water as distribution medium and sprayed with commercial flat fan nozzles.
(§12) Herbicide A-1 (342 g/l), pyroxasulfone (500 g/l) and 2,4-D-choline (456 g/l) were, together with addition of 0.25 v/v % MSO (methylated seed oil) as adjuvant, formulated in 200 l/ha water as distribution medium and sprayed with commercial flat fan nozzles.

Zea mays (ZEAMX) = system: Zea mays (ZEAMX)
Experimental: as §1, §2, §3, §4, §5, §6, §7, §8, §9, §10, §11, §12

[1] = system: Lolium multiflorum (LOLMU)
Experimental: as §1, §2, §3, §4, §5, §6, §7, §8, §9, §10, §11, §12

[2] = system: Amaranthus retroflexus (AMARE)
Experimental: as §1, §2, §3, §4, §5, §6, §7, §8, §9, §10, §11, §12

## CCOC(=O)COc1ccccc1Oc1nc(-n2c(=O)cc(C(F)(F)F)n(C)c2=O)c(F)cc1Cl [A-1, ethyl 2-[2-[[3-chloro-5-fluoro-6-[3-methyl-2,6-dioxo-4-(trifluoromethyl)pyrimidin-1-yl]-2-pyridyl]oxy]phenoxy]acetate]
Hordeum vulgare (HORVW); 21 DAT, Table 4.4
  % Herbicidal activity: 70%
Hordeum vulgare (HORVW); 28 DAT, Table 4.5
  % Herbicidal activity: 70%
Zea mays (ZEAMX); 7 DAT, stage 15-16, height 27-33 cm, g ai/ha A-1 12.5, B 70, C-12 252
  % Herbicidal activity: 40%
Zea mays (ZEAMX); 7 DAT, stage 15-16, height 27-33 cm, g ai/ha A-1 18, B 70, C-12 252
  % Herbicidal activity: 40%
Zea mays (ZEAMX); 7 DAT, stage 15-16, height 27-33 cm, g ai/ha A-1 18, B 90, C-4 12.5
  % Herbicidal activity: 55%
Zea mays (ZEAMX); 7 DAT, stage 15-16, height 27-33 cm, g ai/ha A-1 18, B 90, C-12 252
  % Herbicidal activity: 40%
Zea mays (ZEAMX); 21 DAT, stage 15-16, height 27-33 cm, g ai/ha A-1 12.5, B 70, C-12 252
  % Herbicidal activity: 25%
Zea mays (ZEAMX); 21 DAT, stage 15-16, height 27-33 cm, g ai/ha A-1 18, B 70, C-12 252
  % Herbicidal activity: 30%
Zea mays (ZEAMX); 21 DAT, stage 15-16, height 27-33 cm, g ai/ha A-1 18, B 90, C-12 252
  % Herbicidal activity: 30%
Zea mays (ZEAMX); 42 DAT, stage 15-16, height 27-33 cm, g ai/ha A-1 12.5, B 70, C-12 252
  % Herbicidal activity: 15%
Zea mays (ZEAMX); 42 DAT, stage 15-16, height 27-33 cm, g ai/ha A-1 18, B 70, C-12 252
  % Herbicidal activity: 20%
Zea mays (ZEAMX); 42 DAT, stage 15-16, height 27-33 cm, g ai/ha A-1 18, B 90, C-12 252
  % Herbicidal activity: 20%
Zea mays (ZEAMX); Table 8.1, 7 DAT, stage 15-16, height 50-60 cm, g ai/ha A-1 18, B 70, C-12 1066
  % Herbicidal activity: 85%
Zea mays (ZEAMX); Table 8.1, 7 DAT, stage 15-16, height 50-60 cm, g ai/ha A-1 18, B 90, C-12 1066
  % Herbicidal activity: 85%
Zea mays (ZEAMX); ZEAMX, growth stage 15-16, height 40-60 cm, A-1 18 g ai/ha, 7 DAT, Table 4.2
  % Herbicidal activity: 85%
Zea mays (ZEAMX); ZEAMX, growth stage 15-16, height 40-60 cm, A-1 18 g ai/ha, 21 DAT, Table 4.4
  % Herbicidal activity: 80%
[1]; 7 DAT, stage 22-25, height 20-25 cm, g ai/ha A-1 12.5, B 70, C-12 252
  % Herbicidal activity: 60%
[1]; 7 DAT, stage 22-25, height 20-25 cm, g ai/ha A-1 18, B 70, C-12 252
  % Herbicidal activity: 60%
[1]; 7 DAT, stage 22-25, height 20-25 cm, g ai/ha A-1 18, B 90, C-12 252
  % Herbicidal activity: 60%
[1]; 21 DAT, stage 22-25, height 20-25 cm, g ai/ha A-1 12.5, B 70, C-12 252
  % Herbicidal activity: 40%
[1]; 21 DAT, stage 22-25, height 20-25 cm, g ai/ha A-1 18, B 70, C-12 252
  % Herbicidal activity: 40%
[1]; 21 DAT, stage 22-25, height 20-25 cm, g ai/ha A-1 18, B 90, C-12 252
  % Herbicidal activity: 40%
[1]; 28 DAT, stage 22-25, height 20-25 cm, g ai/ha A-1 12.5, B 70, C-12 252
  % Herbicidal activity: 40%
[1]; 28 DAT, stage 22-25, height 20-25 cm, g ai/ha A-1 18, B 70, C-12 252
  % Herbicidal activity: 40%
[1]; 28 DAT, stage 22-25, height 20-25 cm, g ai/ha A-1 18, B 90, C-12 252
  % Herbicidal activity: 40%
[1]; LOLMU, growth stage 22-25, height 20-25 cm, A-1 18 g ai/ha, 7 DAT, Table 4.2
  % Herbicidal activity: 60%
[1]; LOLMU, growth stage 22-25, height 20-25 cm, A-1 18 g ai/ha, 21 DAT, Table 4.4
  % Herbicidal activity: 60%
[2]; 7 DAT, stage 31-49, height 10-12 cm, g ai/ha A-1 12.5, B 70, C-4 12.5
  % Herbicidal activity: 80%
[2]; 21 DAT, stage 31-49, height 10-12 cm, g ai/ha A-1 18, B 70, C-12 252
  % Herbicidal activity: 80%
[2]; 21 DAT, stage 31-49, height 10-12 cm, g ai/ha A-1 18, B 90, C-12 252
  % Herbicidal activity: 80%
[2]; 42 DAT, stage 31-49, height 10-12 cm, g ai/ha A-1 12.5, B 70, C-4 12.5
  % Herbicidal activity: 80%
[2]; 42 DAT, stage 31-49, height 10-12 cm, g ai/ha A-1 18, B 70
  % Herbicidal activity: 90%
[2]; 42 DAT, stage 31-49, height 10-12 cm, g ai/ha A-1 18, B 70, C-4 12.5
  % Herbicidal activity: 85%
[2]; 42 DAT, stage 31-49, height 10-12 cm, g ai/ha A-1 18, B 90, C-4 12.5
  % Herbicidal activity: 85%
[2]; AMARE, growth stage 31-49, height 10-12 cm, A-1 12.5 g ai/ha, 7 DAT, Table 4.1
  % Herbicidal activity: 80%
[2]; AMARE, growth stage 31-49, height 10-12 cm, A-1 12.5 g ai/ha, 21 DAT, Table 4.3
  % Herbicidal activity: 90%
[2]; AMARE, growth stage 31-49, height 10-12 cm, A-1 18 g ai/ha, 7 DAT, Table 4.1
  % Herbicidal activity: 80% and 93%
[2]; AMARE, growth stage 31-49, height 10-12 cm, A-1 18 g ai/ha, 21 DAT, Table 4.3
  % Herbicidal activity: 80% and 92%
